From a melting point compilation (Tetko et al.; mined from patent text by program, amines drawn as free bases though some values may be those of a salt)

melting point | SMILES
172 to 173 °C | COc1cc2c(cc1OC)C(C)(CCC(=O)O)OCC2=O (centres undefined)
158 to 160 °C | Cc1nc(-c2ccc([N+](=O)[O-])c(C)c2)c[nH]1
207 to 209 °C | O=C1COc2ccc(CN3CCN(c4ccccc4)CC3)cc2N1
157 to 159 °C | CCN(CC)C(=O)N[C@H]1CC[C@H](CCN2CCN(c3cccc4c3CCC4)CC2)CC1
390 °C | CC(=O)Nc1ccc2c(c1)[nH]c(=O)c(=O)n2C
262 to 264 °C | O=C(O)C1=Cc2cc(Cl)c(Cl)cc2SC1C(F)(F)F (centres undefined)
215 to 217 °C | Cc1nn(-c2cc3[nH]c(=O)ccc3cc2F)c(=O)n1C(F)F
150 to 152 °C | O=C(CN1CCNCC1C(=O)CCCCCNO)Nc1nc2ccccc2s1 (centres undefined)
120 to 121 °C | COc1cc(COc2cccc(S(=O)(=O)c3ccc(C)nc3Nc3c(C)cc(C)cc3C)c2)cc(OC)c1
140 °C | O=[N+]([O-])c1cc([N+](=O)[O-])c2ccccc2c1Nc1ccc(OC(F)(F)F)c(Cl)c1
84 to 85 °C | CCOC(=O)C(=O)c1cc(Cl)c(C)cc1F
202 to 204 °C | Clc1ccc(-c2ccc(Cl)nn2)cc1
72 to 73 °C | CCOC(=O)c1ccc(C=C(C)C=O)cn1
89 °C | N#CC(c1ccccc1)c1ccccn1 (racemic)
107 to 111 °C | CCOC(=O)C1=C(C)NC(c2cnc(C)s2)=NC1c1ccc(F)cc1Cl (centres undefined)
160 to 161 °C | Cc1nnc(-c2ccc3ncn(-c4ccc(OC(F)(F)F)cc4)c3c2)o1
192 to 193 °C | Nc1cc(/C=C/c2nc3ccccc3s2)ccc1O
> 270 °C | O=Cc1ccc(O)c2oc3ccc([N+](=O)[O-])cc3c12
67 to 68 °C | COC(=O)C(C)(C)CCCOc1cc(C)c(OCc2ccccc2)c(C)c1C
126 to 129 °C | O=C(O)CC1CC(c2ccccc2)c2ccccc21 (centres undefined)
168 to 169 °C | O=C(O)CCc1oc(-n2cncn2)nc1-c1ccc(Cl)cc1
125 °C | CCOC(=O)c1cc(=O)c2ccc(OS(=O)(=O)c3ccc(C)cc3)c([N+](=O)[O-])c2o1
70 to 72 °C | CCOC(=O)CCCCNc1ncc([N+](=O)[O-])cc1[N+](=O)[O-]
86 to 88 °C | COc1ccc(COc2ccc3c(c2)OC(C)(C)C3c2ccc(C(C)C)cc2)cc1 (centres undefined)

melting point | SMILES
126 to 128 °C | CCOC(=O)/C=C(C)/C(F)=C/C=C(C)/C=C/c1c(Cl)cc(OC)c(C)c1C
100 to 105 °C | N#CC(O)C(=O)c1ccccc1 (centres undefined)
61 to 62 °C | COC(=O)c1cc(S)cc(S)c1
166 °C | COc1ccc2ccccc2c1-c1c(C)c2c(c(C)c1P(c1ccccc1)c1ccccc1)CCC2
112 to 114 °C | CC(C(=O)O)c1ccc(N2CC(O)C(O)C2)c(Cl)c1 (centres undefined)
161 to 164 °C | O=C(NCC1CC2C=CC1C2)NS(=O)(=O)C=Cc1ccccc1 (centres undefined)
244 °C | O=C(O)c1cnn2c(C(F)(F)F)cc(-c3ccc(C(F)(F)F)c(Cl)c3)nc12
157 to 158 °C | CCOc1cccn2nc(-c3ccccc3)c(-c3ccc(=O)n(C(C)C)n3)c12
246 to 249 °C | CCCCCOc1ccc(-c2ccc(-c3nc(N)nc(N)n3)cc2)cc1
134 to 135 °C | CS(=O)(=O)c1ccc(Oc2cc(OCc3ccccc3)c3[nH]c(C4=NCC(CC(N)=O)S4)cc3c2)cc1 (centres undefined)
145 °C | COc1cc(C(C)=O)cc(OC)c1OC(C)=O
179 to 180 °C | CCCc1c(OCCCOc2ccc(C(=O)CCC(=O)O)cc2C)ccc(C(C)=O)c1O
262 to 264 °C | COc1ccc2c(c1)c1c3c(c(-c4ccccc4)cc1n2CCO)C(=O)NC3=O
78 to 82 °C | O=C1N(CC2CCCO2)c2cccc(Cl)c2C12COc1cc3c(cc12)CCO3 (centres undefined)
77 to 79 °C | ClC(Cl)(Cl)c1nc(-c2ccccc2-c2ccc(CBr)cc2)no1
91 to 93 °C | Cc1c(SCCN2CCOCC2)ccnc1CSc1nc2ccccc2s1
213 to 214 °C | CCOC(=O)c1sc(NC(C)=O)nc1CCc1ccc(NC(=O)OC(C)(C)C)cc1
192 °C | CC(C)(N)c1ccc(-c2nc(Nc3ccc(F)c(F)c3)ncc2C#N)cc1
115 to 117 °C | CC(C)(C)NC(=O)OC1CCN(c2cccc(C(F)(F)F)c2)C1=O (centres undefined)
127 to 130 °C | CCCCN(CCCC)CCCOc1ccc(-c2cn3cccc(C)c3n2)cc1OC
164 to 166 °C | CC(Oc1ccc(C(=O)NCCN(O)C(N)=O)cc1)c1ccccc1 (centres undefined)
97 to 100 °C | COC1CCN(c2cc(NC(=O)OC(C)(C)C)c(NC(=O)CC(=O)c3cccc(C#N)c3)cc2C#Cc2ccccc2)CC1
116 to 120 °C | CCCNC(=O)[C@@H](C)NC(=O)OCc1ccccc1
190 to 196 °C | Nc1nc(=O)n(CCCN2CCN(C(c3ccccc3)c3ccccc3)CC2)c2ccccc12

melting point | SMILES
144 to 145 °C | Cn1c(CCCCN2CCN(c3cc(C(C)(C)C)nc(C(C)(C)C)n3)CC2)nnc1-c1ccccc1
149 to 150 °C | CCOc1cc2cc(C(=O)OC)c(C(=O)OC)c(-c3ccncc3)c2cc1OCC
197 to 200 °C | CN(C)S(=O)(=O)c1cc(-c2ccccc2)ccc1S(N)(=O)=O
116 to 117 °C | CC(Br)C(=O)c1cc(C(N)=O)cs1 (centres undefined)
83 to 84 °C | O=S(=O)(On1nnc2ccccc21)c1ccccc1
141 to 143 °C | O=C(Nc1cc(Cl)ccc1N1CCCCC1)c1ccncc1
113 to 115 °C | COc1ccc(S(=O)c2ccccc2)cc1N (centres undefined)
98 to 99 °C | CC(C)(C)OC(=O)n1cccc1-c1ccc(C[C@H](NC(=O)c2c(Cl)cccc2Cl)C(=O)O)cc1
295 to 296 °C | O=c1[nH]c(=Cc2ccccc2[N+](=O)[O-])c(=O)[nH]c1=Cc1ccc(OCc2ccccc2)cn1
95 to 95.5 °C | CCCc1c(OCCCSc2c(C(C)C)nn3ccccc23)ccc(C(C)=O)c1O
219 to 223 °C | COc1c([N+](=O)[O-])cc2cc(-c3ccc([N+](=O)[O-])cc3)c(=O)oc2c1OC
150 to 153 °C | Cc1ccccc1-c1nc(=S)n(Cc2ccccc2)[nH]1
143 to 144 °C | COc1ccc(Cn2c(=O)c3cc([N+](=O)[O-])ccc3n(CCCCBr)c2=O)cc1
91 °C | CC(C)(C)Sc1cccc(C(F)(F)F)c1S(N)(=O)=O
147 to 148 °C | Cc1c(NC(=O)c2cccc(Oc3ccccc3)c2)ccc2cc(CN3CCCC3)cnc12
165 to 167 °C | CC(C)(C)OC(=O)NCC(CC(=O)Nc1ccccc1)c1ccc(Cl)cc1 (centres undefined)
150 to 152 °C | Nc1cc(C(=O)NCC(=O)O)ccc1F
195 to 205 °C | CC(C)(C(=O)O)c1cn2nc(CCCN3CCC(OC(c4ccccc4)c4ccccc4)CC3)ccc2n1
151 °C | Nc1c(F)c(Cl)c(O)c(Cl)c1F
266 °C | Cc1ccc2c([nH]c3c(C(=O)O)cccc32)c1Cl
111 to 113 °C | COC(=O)c1cn(CCN)c(Cl)c1-c1cccc(C#N)c1
122 °C | Cc1cccc(-c2nc3c(C)cccn3c2-c2ccnc(-c3ccc(CN4CCOCC4)cc3)c2)n1
192 to 193 °C | CCN(C(C)=O)c1cccc(-c2ccc3nnc(N)n3n2)c1
242 °C | NS(=O)(=O)c1cccc(-c2cn(-c3nc(-c4ccc(F)c(F)c4)cc(C(F)(F)F)n3)cn2)c1

melting point | SMILES
126 to 127 °C | CC(=O)O[C@@H]1[C@H](OC(C)=O)[C@@H](C)O[C@H]1n1c(Cl)nc2c(Cl)c(Cl)c(Cl)cc21
72.5 to 74.5 °C | O=Cc1c(F)cccc1NCc1ccccc1
156 to 158 °C | O=C(C=Cc1ccccc1)C(Cc1ccccc1)C(=O)C=Cc1ccccc1 (centres undefined)
138 °C | O=S1(=O)c2cccc3cccc(c23)N1CCCCN1CCN(c2noc3ccccc23)CC1
183 °C | O=c1oc(=O)n(-c2ccccc2)c2ccccc12
45 °C | C#CCn1cc(CO)c(C(F)(F)F)c1
85 to 86 °C | O=Cc1c(Cl)cc(OCc2ccccc2)cc1OCc1ccccc1
139 to 140 °C | CSc1ccc(-c2cc(C(C)C)nc(N)n2)c2ccccc12
216 to 217 °C | CCNC(=O)CC1CN=C(c2cc3cc(Oc4ccc(S(C)(=O)=O)nc4)ccc3[nH]2)S1 (centres undefined)
54 to 64 °C | COc1ccc2c(c1)C(=NN1CCOC1=O)CCO2
85 to 86 °C | CCN(CC)C(=O)n1ccc(S(=O)(=O)c2ccc(C)c(C)c2)n1
288 to 289 °C | COc1cc2nc(N3CCN(C(=O)C=Cc4ccc(N(C)C)cc4)CC3)nc(N)c2cc1OC
108 °C | Clc1ccc(NCCCNCC2CCc3ccccc3O2)nn1 (centres undefined)
108 to 110 °C | CCOc1nc2ccccc2nc1NC(=O)N1CCN(c2cccc(C)c2C)CC1
99 to 100 °C | O=C(O)CCC1Cc2ccccc2C1
84 to 85 °C | OCc1cnc(-c2ccc(OC(F)(F)F)cc2)nc1
171 to 173 °C | COc1ccc(C2=NNC(=O)CC2c2ccc(OC)c(F)c2)cc1 (centres undefined)
74 °C | OCCc1ccc(-c2ccccc2)s1
141 to 142 °C | Cc1nn(C)c2c1Nc1ncccc1N(C)C2=O
> 300 °C | O=C(O)c1ccc(C(=O)Nc2ccc(C(=O)N3CCCc4ccccc43)cc2)cc1
105 to 108 °C | COC(=O)NCCOC(=O)COc1cc(Oc2ccc(C(F)(F)F)cc2Cl)ccc1[N+](=O)[O-]
147 to 151 °C | CC(=O)C1=CCC2C3CCC4CC(OS(=O)(=O)c5ccc(C)cc5)CCC4(C)C3C(=O)CC12C (centres undefined)
152 to 153 °C | Cc1cc(N=Nc2ccccn2)ccc1-c1ccc(-c2ccc(N=Nc3ccccn3)cc2C)s1

SMILES | melting point
CC[C@H](C)N1CC(C)(C)[C@@H](Oc2ccc(C#N)c(C(F)(F)F)c2)C1=O | 101 to 102 °C
CCC12CCC3C4CCC(=O)C=C4CCC3C1CCC2OC(=O)CC(C)C (centres undefined) | 82 to 89 °C
O[C@@]1(c2ccc(Cl)c(Cl)c2)CCC[C@H]2NCC[C@H]21 (racemic) | 190 to 191 °C
CCN1CC2OC(C3OCCO3)(C1)c1ccccc12 (centres undefined) | 107 to 108 °C
